Results taken from patent US20130040990A1, “SYNTHESIS OF DGJNAc FROM D-GLUCURONOLACTONE AND USE TO INHIBIT ALPHA-N-ACETYLGALACTOSAMINIDASES” (The Chancellor, Masters and Scholars of the University of …, priority 2010, published 2013).

What was measured:
[1] = biological target: β-hexosaminidase from bovine kidney; assay: Inhibition of β-hexosaminidase from bovine kidney; assay type: biochemical
[2] = biological target: α-N-acetylgalactosaminidase (GalNAcase) from Charonia lampas; assay: Inhibition of GalNAcase from Charonia lampas; assay type: biochemical; conditions: competitive inhibition
[3] = biological target: β-hexosaminidase from HL-60; assay: Inhibition of β-hexosaminidase from HL-60; assay type: biochemical
[4] = biological target: T1, coffee bean α-galactosidase (Coffea arabica, UniProt Q42656); assay: biochemical
T1 construct: coffee bean α-galactosidase; from tissue; host or cells: coffee bean

[5] = biological target: T2, α-N-acetylgalactosaminidase (GalNAcase) from chicken liver (Gallus gallus, UniProt Q90744); assay: Inhibition of GalNAcase from chicken liver; assay type: biochemical; conditions: competitive inhibition
T2 construct: from tissue; host or cells: chicken liver
T2 sequence (Q90744 1-405): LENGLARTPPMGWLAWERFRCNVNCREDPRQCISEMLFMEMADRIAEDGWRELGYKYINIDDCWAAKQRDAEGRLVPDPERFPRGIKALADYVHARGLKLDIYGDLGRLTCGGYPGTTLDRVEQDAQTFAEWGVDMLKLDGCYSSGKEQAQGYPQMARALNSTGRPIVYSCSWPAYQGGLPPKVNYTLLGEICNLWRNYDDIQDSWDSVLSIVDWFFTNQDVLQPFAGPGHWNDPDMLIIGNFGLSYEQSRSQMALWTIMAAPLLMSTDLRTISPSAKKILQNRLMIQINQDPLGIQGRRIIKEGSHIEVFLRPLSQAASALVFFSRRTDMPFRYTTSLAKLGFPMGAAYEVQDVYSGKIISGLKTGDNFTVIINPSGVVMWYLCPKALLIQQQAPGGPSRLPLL

[6] = biological target: β-hexosaminidase from Jack bean; assay: Inhibition of β-hexosaminidase from Jack bean; assay type: biochemical
[7] = biological target: β-hexosaminidase from human placenta; assay: Inhibition of β-hexosaminidase from human placenta; assay type: biochemical; conditions: for Ki: 1L non-competitive, 1D competitive
[8] = system: α-N-acetylgalactosaminidases; assay: Inhibition of α-N-acetylgalactosaminidases (source not given); assay type: biochemical
β-hexosaminidases = conditions: literature statement; cited from earlier work
GalNAcases = conditions: literature statement; cited from earlier work

T1 sequence (Q42656 16-378): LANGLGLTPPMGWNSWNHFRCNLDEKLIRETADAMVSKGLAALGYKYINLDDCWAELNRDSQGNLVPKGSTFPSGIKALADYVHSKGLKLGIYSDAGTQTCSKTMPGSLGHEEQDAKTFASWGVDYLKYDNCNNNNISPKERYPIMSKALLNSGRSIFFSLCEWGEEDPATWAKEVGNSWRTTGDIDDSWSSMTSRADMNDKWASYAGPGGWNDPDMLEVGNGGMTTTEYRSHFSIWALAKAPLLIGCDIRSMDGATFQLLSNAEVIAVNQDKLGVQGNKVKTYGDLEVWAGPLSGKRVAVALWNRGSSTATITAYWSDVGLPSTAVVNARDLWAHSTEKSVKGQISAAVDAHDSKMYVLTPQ

Structure (SMILES) | IC50 [1] | Ki [2] | IC50 [3] | IC50 [4] | Ki [5] | IC50 [6] | IC50 [7] | Ki [7] | inhibition of coffee bean α-galactosidase [4] | inhibition of α-N-acetylgalactosaminidases [8] | inhibition of β-hexosaminidases (β-hexosaminidases) | inhibition of GalNAcases (GalNAcases)
CC(=O)N[C@H]1CN[C@H](CO)[C@H](O)[C@@H]1O [DGJNAc 1D, 2-acetamido-1,2-dideoxy-D-galacto-nojirimycin] | 4.2 µM | 0.136 µM | 2.2 µM | 64 µM | 0.081 µM | 1.8 µM | 8.3 µM | 2.2 µM | – | – | – | –
CC(=O)NC1CNC(CO)C(O)C1O [L-DGJNAc 1L] | – | – | – | – | – | – | – | 1100 µM | no inhibition | no inhibition | – | –
CC(=O)N[C@H]1c2nc(CC(=O)O)cn2[C@H](CO)[C@H](O)[C@@H]1O [nagstatin 4, nagstatin] | – | – | – | – | – | – | – | – | – | – | potent inhibitor | does not inhibit
